# Measured values as given in patent US20260306463A1, “SIK INHIBITORS TO TREAT CHRONIC KIDNEY DISEASE” (The General Hospital Corporation, priority 2023, published 2026).
# “Also recorded” adds a separate entry of the source.
# Legend:
# [1] = system: renal fibrosis, adenine-induced CKD mice; assay: renal fibrosis in adenine CKD mice (trichrome, immunoblot, RT-qPCR); assay type: in vivo, mouse; settings: adenine diet; SK-124 40 mg/kg oral
# Experimental: FIGS. 3A-3C. SK-124 treatment reduces fibrosis in adenine-induced chronic kidney disease. (A) Representative trichrome stained sections from the indicated groups. Darker staining indicates fibrosis which is increased in vehicle-treated adenine diet mice and reduced by SK-124 treatment. (B) Kidney protein lysates were isolated and analyzed by immunoblotting for alpha-smooth muscle actin (αSMA) (top) and GAPDH (bottom). (C) Whole kidney RNA from the indicated groups was analyzed by RT-qPCR for the indicated fibrosis marker.
# (§1) 7-week-old female CD1 mice were obtained from Charles River Laboratories (Wilmington, MA) and were fed on 0.2% adenine containing diet (TD.130900; 0.2% Adenine, 0.9% Phosphate, 0.5% Calcium; Envigo) or control diet (TD. 96348) for 6 or 8 weeks to induce chronic kidney disease (CKD). Mice were oral gavaged with 40 mg/kg SK-124, or intraperitonially injected with 80 μg/kg PTH, or treated with vehicle 5 days a week for the duration of the special diet.
# (§2) cDNA was prepared using Primescript RT kit (Takara Inc), with 750 ng RNA per reaction. RT-qPCR was performed by using PerfeCa® SYBR® Green FAstMix® ROX (Quanta bio) in the StepOnePlus™ Real-time PCR System (Applied Biosystems). Hmbs was used as a control housekeeping gene for mouse samples, and B-Actin was used for organoids, relative expression was calculated (2^-deltaCT method) and compared to the mean of control group if necessary. Primers used for RT-qPCR are listed in Table 2 (mouse primers) and Table 3 (human primers).
# (§3) Snap-frozen kidneys were homogenized in NP-40 lysis buffer (FNN0021, Thermo) with using TissueLyserII at 30 Hz for 5 minutes. Samples were rotated at 4 deg for 20 minutes and frozen on dry ice and thawed. After centrifuging for 30 minutes at 4 deg, the supernatants were collected. After determining the protein concentration by Bradford assay, […] of protein was loaded for western blotting. For KGli cells, the cells were washed with cold PBS then scraped into TNT buffer (Tris-NaCl-Tween buffer, 20 mM Tris-HCl pH 8, 200 mM NaCl, 0.5% Triton X-100 containing 1X-protease inhibitor cocktail (Bimake Inc. 100X, Cat. #B14001), 1 mM DTT, 1 mM NaF, 1 mM Vanadate (New England Biolabs)). Next, samples were vortexed for 1 minute and centrifuged at 14,000g for 6 minutes at 4 deg, and the supernatant was collected.
# (§4) For immunoblotting, the lysates were separated by SDS-PAGE (Bio-rad precast gels), and proteins were transferred to the nitrocellulose membranes. Then, the membranes were blocked in 5% milk in tris-buffered saline plus 0.05% Tween-20 (TBST) and incubated with primary antibody in 5% BSA-TBST overnight at 4° C. Next day, after washing, membranes were incubated with anti-rabbit HRP-coupled secondary antibody (1:2500, Cell Signaling Technology, 7074S) or anti-mouse HRP-coupled secondary antibody (1:2500, Cell Signaling, 7076S), and signals were detected with SuperSignal West Femto Maximum Sensitivity Substrate (Thermo scientific) using the iBright imager (ThermoFisher). The antibodies used are: SIK2 (1:1000, Cell Signaling, 6919), GAPDH (1:1000, Cell Signaling, 2118), αSMA (1:1000, Invitrogen, 14-9760-82), pSMAD3 (1:1000, Cell Signaling, 9520), and SMAD⅔ (1:1000, Cell Signaling, 8685).
# Hematoxylin and eosin (H+E) staining was performed on some sections using standard protocols and Masson's Trichome stain for fibrosis was performed according to the manufacturer's instructions (ab150686, abcam). Formalin-fixed paraffin embedded sections were also used for in situ hybridization according to the manufacturer instructions (ACDbio). Briefly, the sections were blocked with hydrogen peroxide for 10 minutes at room temperature, followed by antigen retrieval with Pepsin (R2283, Sigma-Aldrich) in humidified chamber in 40° C. HybEZ oven. The Sik1 (526411, ACD), Sik2 (526421, ACD), or Sik3 (526431, ACD) probe was added to the sections for 2 hours in the humidified chamber at 40° C. Then, the signal was amplified (322310, ACD) and detected using Brown DAB kit (322310, ACD). […]
# [2] = system: whole kidney transcriptome; assay: bulk RNA-sequencing of whole kidney, adenine CKD mice; assay type: in vivo, mouse; settings: bulk RNA-seq; adenine vs control diet, or SK-124 vs vehicle in CKD mice
# Experimental: FIGS. 6A-6F. The effects of SK-124 treatment at the transcriptomic level in adenine-induced mouse chronic kidney disease. RNA-seq was performed on whole kidney RNA samples (n=7/group) from FIG. 1. Volcano plot show gene regulated (>2-fold change, p(adj)<0.05) by CKD (versus control diet, A) or in CKD by SK-124 (versus vehicle control, B). In Volcano plot, representative fibrosis markers (Col3a1, Vim, Serpinel) and proximal tubule integrity (Lrp2. Atplai, and Hnf4a) are shown. Scatterplot (C) and heatmap (D) showing integration of individual RNA-seq comparisons. […] (E) Single cell RNA-sequencing was performed on dissociated kidneys from adenine diet fed mice treated with vehicle or SK-124 (n=4/group). […] (F) Relative cellularity of each annotated cluster is shown in pie chart format for adenine+vehicle (CKD-Veh) or adenine+SK-124 (CKD-SK-124) mice.
# Isolated RNA samples from the mouse adenine diet study and human kidney organoid experiment were submitted to Novogene and bulk-RNA sequencing on NovaSeq X Plus Ilumina Novoseq Platform. Sequencing reads were mapped to the mouse reference genome (mm10/GRCm38) or human reference genome (GRCh38/hg38) using Salmon and differential gene expression analysis was performed using DESeq2.
# [3] = system: SIK isoforms (Sik1, SIK2, Sik3); assay: SIK isoform expression in kidneys of adenine diet mice (immunoblot, RT-qPCR, RNAscope); assay type: in vivo, mouse
# Experimental: FIGS. 2A-2C. SIK isoform expression in adenine-induced chronic kidney disease. (A) Kidney protein lysates were isolated and analyzed by imnunoblotting for SIK2 (top) and GAPDH (bottom). SIK2 protein levels are increased in adenine diet. (B) Whole kidney RNA from the indicated groups was analyzed by RT-qPCR for the indicated SIK isoform. (C) Kidney sections from control and CKD (6 weeks adenine diet) were stained using RNAscope (darker shade) for the indicated SIK isoform.
# as §2, §3
# as §4, with “The antibodies used are: SIK2 (1:1000, Cell Signaling, 6919), GAPDH (1:1000, Cell Signaling, 2118), αSMA (1:1000, Invitrogen, 14-9760-82), pSMAD3 (1:1000, Cell Signaling, 9520), and SMAD⅔ (1:1000, Cell Signaling, 8685).” left out
# Hematoxylin and eosin (H+E) staining was performed on some sections using standard protocols and Masson's Trichome stain for fibrosis was performed according to the manufacturer's instructions (ab150686, abcam). […] Then, the signal was amplified (322310, ACD) and detected using Brown DAB kit (322310, ACD).
# human kidney organoids = assay: cisplatin injury of human kidney organoids: immunostaining, organoid size; assay type: cell-based; settings: intermittent cisplatin, 5 treatments
# Experimental: FIG. 7. SK-124 preserves human kidney organoid integrity in cisplatin injury model. Human kidney organoids derived from H9 embryonic stem cells were treated with intermittent cisplatin (5 separate treatments) based on published protocols along with the indicated agent. Organoids were cryo-sectioned and immuno-stained with the indicated markers. The top panels show low power images and the bottom panels focus on regions of proximal tubule cells. The graph measures the mean diameter of organoids in the control (no cisplatin), cisplatin+DMSO, and cisplatin+SK-124 treatment groups.
# BJFF human induced pluripotent stem cells (hPSCs) were maintained on Geltrexcoated (Thermo Fisher Scientific) plates using StemFit Basic04 Complete (Ajinomoto Co. Inc.) as previously reported(25). The cells were passaged weekly using Accutase (STEMCELL Technologies) for dissociation and Y27632 (Tocris) for adhesion. Directed differentiation of hPSCs into kidney organoids has been published elsewhere (29). Briefly, hPSCs were differentiated into metanephric mesenchyme cells on day 8 by a three-step directed differentiation protocol. Metanephric mesenchyme was transferred into suspension culture in 96-well ultralow adhesion plates (Coming) and further differentiated into kidney organoids, as previously reported(25). Quality control measures of SIX2 immunostaining on day 8 of differentiation and CDH1, LTL, PODXL, CD146, MEIS1/2/3, and SYTOX-blue staining on day 21 were performed on all batches of kidney organoids to limit batch-to-batch heterogeneity. Kidney organoids were maintained in 200 μl of basal media consisting of Advanced RPMI (Thermo Fisher Scientific) and GlutaMAX (Thermo Fisher Scientific) in 96-well plates, as previously reported. Media changes were conducted three times weekly with removal of 90 [l and addition of 100 μl of fresh basal media.
# For cisplatin induced injury, day 49 organoids were treated with 5 μM cisplatin in basal media after full media change. After 24 hours, full media exchanges were performed. This 24-hour treatment was performed twice a week, on day 52-53, day 56-57, day 59-60, and day 63-64 as well, for a total of five cisplatin treatments. Samples were obtained for RT-qPCR and immunostaining immediately following each 24-hour treatment with cisplatin, and from corresponding controls.
# Following the treatment, the organoids were collected and immediately fixed in 4% PFA in PBS for 1 hour at room temperature, submerged in 30% sucrose overnight at 4° C., then embedded in O.C.T. Compound (4585. Fisher HealthCare). Subsequently, […] frozen sections were prepared via cryo-sectioning by a cryostat. After 1 hr blocking at room temperature, the sections were treated overnight at 4° C. with primary antibodies in antibody dilution buffer (ADB) with biotinylated LTL (1:200, B-1325, Vector), rat anti-CDH1 (1:500, ab11512, Abcam), goat anti-PODXL (1:500, AF1658, R&D Systems), as well as the antibody of interest, either mouse anti-p21 (1:200, NBP2-43697, Novus Biologicals), or rabbit anti-γH2AX (1:100, 2577, Cell Signaling) antibodies. For the optimum labeling of LTL by biotin/streptavidin interaction, the Streptavidin/Biotin Blocking Kit (SP-2002, Vector Laboratories) was applied according to the manufacturer's instructions. After washing, the samples were stained for 1 hour at RT with the nuclear dye-SYTOX Blue (1:500. S 11348, Invitrogen) and the corresponding secondary antibodies in ADB such as streptavidin-AF750 (1:500, S21384, Invitrogen), donkey anti-rat IgG-AF594 (1:500, A21209, Invitrogen), donkey anti-goat IgG-AF555 (1:500, A21432, Invitrogen), and donkey anti-rabbit IgG-AF488 (1:500, A21206, Invitrogen) for γH2AX or donkey anti-mouse IgG-AF488 (1:500, A21202, Invitrogen) for p21 antibodies as well as mouse anti-Meisl/⅔ (1:200, sc-101850, SantaCruz) conjugated antibody, and slides were mounted with Vectashield antifade mounting medium (H1000, Vector Laboratories). […]
# [4] = system: mice with adenine diet-induced chronic kidney disease; assay: 8 week adenine diet CKD study, SK-124 versus once daily PTH injections; assay type: in vivo, mouse (female CD1); settings: 8 weeks
# Experimental: FIGS. 4A-4D. […] (A) Study design: Female CD1 mice (n=8/group) were treated with control or 0.2% adenine diet starting at […] of age along with vehicle, PTH (80 mcg/kg/d, IP injections) or SK-124 (40 mg/kg) treatment by oral gavage once daily. Mice were treated for 8 weeks. (B, C) After 8 weeks of treatment, the indicated serum analyte was measured. (D) Whole kidney RNA from the indicated groups was analyzed by RT-qPCR for the indicated fibrosis marker gene.
# as §1
# For studies with Ubiquitin-Cre^ERt2; Sik2^ff; Sik3^ff mice (JAX #007001 for Ubiquitin-Cre^ERt2: RRID:MGL:5905012 for Sik2 foxed mice; and Sik3^tmla(EUCOMM)Hmgu mice (RRID:MGI:5085429) bred to PGK1 FLPo mice (JAX #011065) in order to generate Sik3 foxed mice), tamoxifen was injected (1 mg, IP, Q48 hours, 3 injections total) in all animals including Cre-negative control littermates housed in cages with Pure-o′Cel bedding at 5 weeks of age. Mice were then fed on 0.2% adenine diet from 6 weeks to 9 weeks of age. Mice were fasted for 6 hours and treated with SK-124 and PTH 4 hours and 2 hours before the sacrifice. Blood and spot urine samples were collected by cheek pouch bleeding and by pipetting urine collected on hydrophobic sand (Labsand; Braintree, MA). Kidneys were immediately snap-frozen in liquid nitrogen for TRIzol (Life Technologies)-Chloroform (Fischer Scientific) based RNA isolation or protein isolation, or fixed in 10% formalin at 4C for 24 hrs for histology. All serum and urine measurements were performed using commercial bioassay detection reagents listed in Table 1, following the manufacturers' instructions. Urine protein levels were measured by Bradford assay and normalized to urine creatinine.
# as §2
# [5] = whole kidney RNA, RT-qPCR, 6 weeks adenine diet
# [6] = SK-124 40 mg/kg oral gavage once daily, or PTH 80 mcg/kg/d IP
Molecule,fibrosis (trichrome staining) [1],"injury markers (Col3a1, Vim, Serpine1) [2]","markers of intact proximal epithelial cells (Lrp2, Atpla1, Hnf4a) / epithelial cell integrity [2]","SIK2 protein level ([3]; kidney lysates, immunoblot, 0.2% adenine diet, 6 weeks)","Sik1 expression [3, 5]","Sik2 expression [3, 5]","Sik3 expression [3, 5]",patterns of cisplatin-induced injury (human kidney organoids),"CKD-MBD markers [4, 6]","kidney function [4, 6]","fibrosis marker gene expression ([4]; whole kidney RT-qPCR, SK-124 40 mg/kg oral, or PTH 80 mcg/kg/d IP)"
Nc1ncnc2nc[nH]c12 [adenine],increased,upregulated,reduced,increased; also recorded: robust SIK2 upregulation,increased,increased,trends towards increased,–,–,–,–
"PTH: Human PTH1-34, dissolved in 10 mM acetic acid",–,–,–,–,–,–,–,minimal effects,did not cause these effects,did not cause these effects,did not cause these effects
